Publication PMC9506414, “Novel 2,6,9-Trisubstituted Purines as Potent CDK Inhibitors Alleviating Trastuzumab-Resistance of HER2-Positive Breast Cancers” (Pharmaceuticals, 2022)

Columns and labels:
HCC1954 cells = test: Combination with trastuzumab, growth inhibition; format: cell-based, human; settings: 40 nM 30d with multiple doses of trastuzumab, 72 h
Method: (§1) Additionally, we examined a combination effect in both SK-Br3 and HCC1954 cells.
(§2) Breast-cancer cells in culture media (100 μL volume/well, 5000 SK-Br3 cells/well, 1000 HCC-1954 cells/well) were seeded in tissue culture-treated 96-well plates, and incubated at a cell incubator for 24 h. Serially diluted compounds (3-fold, 10 point from 10 mM, duplicated) were pre-plated and 500 nL of compound solutions were pin-transferred to the cells in the assay plates using pintool system (JANUS liquid handler, PerkinElmer, Waltham, MA, USA) and incubated at a cell incubator for 72 h. Cell-titer Glo^TM reagent (50 μL, Promega Corp., Madison, WI, USA) was added to each well, and the luminescence signal was read using an Envision^TM plate reader (PerkinElmer, Waltham, MA, USA). The titration curve fitting and IC50 values were generated using Prism 7.0 s/w (GraphPad, San Diego, CA, USA).

SK-Br3 cells = test: Combination with trastuzumab, growth inhibition; format: cell-based, human; settings: 40 nM 30d with multiple doses of trastuzumab, 72 h
Method: as §1, §2

CDK4-cyclinD1 = test system: CDK4-cyclinD1; set-up: method as in HMS LINCS database; settings: 10 μM, ref HMS LINCS database; cited from earlier work
CDK3 = test system: CDK3; set-up: method as in HMS LINCS database; settings: 10 μM, ref HMS LINCS database; cited from earlier work
PCTK1 = test system: PCTK1; set-up: method as in HMS LINCS database; settings: 10 μM, ref HMS LINCS database; cited from earlier work
CDK7 = test system: CDK7; set-up: method as in HMS LINCS database; settings: 10 μM, ref HMS LINCS database; cited from earlier work
PFTAIRE2 = test system: PFTAIRE2; set-up: method as in HMS LINCS database; settings: 10 μM, ref HMS LINCS database; cited from earlier work
ICK = target: T1, ICK (Homo sapiens, UniProt Q9UPZ9); set-up: method as in HMS LINCS database; settings: 10 μM, ref HMS LINCS database; cited from earlier work
T1 construct: purchased Reaction Biology Corp
T1 sequence (Q9UPZ9 whole entry): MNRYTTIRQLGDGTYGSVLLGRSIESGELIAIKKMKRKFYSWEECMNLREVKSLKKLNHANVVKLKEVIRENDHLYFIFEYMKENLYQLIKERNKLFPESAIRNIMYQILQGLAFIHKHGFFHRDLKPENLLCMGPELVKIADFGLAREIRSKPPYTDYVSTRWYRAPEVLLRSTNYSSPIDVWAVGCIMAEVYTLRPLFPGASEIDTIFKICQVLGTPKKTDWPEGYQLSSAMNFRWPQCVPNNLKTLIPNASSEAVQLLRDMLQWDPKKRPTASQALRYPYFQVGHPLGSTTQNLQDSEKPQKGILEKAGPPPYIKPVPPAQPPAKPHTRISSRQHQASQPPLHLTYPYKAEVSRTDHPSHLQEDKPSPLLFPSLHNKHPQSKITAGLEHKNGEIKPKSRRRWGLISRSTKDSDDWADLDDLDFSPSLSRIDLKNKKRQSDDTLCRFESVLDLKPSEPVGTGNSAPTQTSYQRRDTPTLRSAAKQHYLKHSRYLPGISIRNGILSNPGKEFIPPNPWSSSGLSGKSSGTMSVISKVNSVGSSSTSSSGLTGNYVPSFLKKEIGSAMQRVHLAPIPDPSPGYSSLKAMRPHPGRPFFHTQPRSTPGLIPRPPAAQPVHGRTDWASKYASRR

TLK1 = target: T2, TLK1 (Homo sapiens, UniProt Q9UKI8); set-up: method as in HMS LINCS database; settings: 10 μM, ref HMS LINCS database; cited from earlier work
T2 construct: purchased Reaction Biology Corp

ERK8 = test system: ERK8; set-up: method as in HMS LINCS database; settings: 10 μM, ref HMS LINCS database; cited from earlier work
PFPK5(P.falciparum) = test system: PFPK5(P.falciparum); set-up: method as in HMS LINCS database; settings: 10 μM, ref HMS LINCS database; cited from earlier work
CDKL5 = test system: CDKL5; set-up: method as in HMS LINCS database; settings: 10 μM, ref HMS LINCS database; cited from earlier work
GSK3a = target: T3, GSK3a (Homo sapiens, UniProt P49840); set-up: method as in HMS LINCS database; settings: 10 μM, ref HMS LINCS database; cited from earlier work
T3 construct: purchased Reaction Biology Corp

TAOK1 = target: T4, TAOK1 (Homo sapiens, UniProt Q7L7X3); set-up: method as in HMS LINCS database; settings: 10 μM, ref HMS LINCS database; cited from earlier work
T4 construct: purchased Reaction Biology Corp
T4 sequence (Q7L7X3 whole entry): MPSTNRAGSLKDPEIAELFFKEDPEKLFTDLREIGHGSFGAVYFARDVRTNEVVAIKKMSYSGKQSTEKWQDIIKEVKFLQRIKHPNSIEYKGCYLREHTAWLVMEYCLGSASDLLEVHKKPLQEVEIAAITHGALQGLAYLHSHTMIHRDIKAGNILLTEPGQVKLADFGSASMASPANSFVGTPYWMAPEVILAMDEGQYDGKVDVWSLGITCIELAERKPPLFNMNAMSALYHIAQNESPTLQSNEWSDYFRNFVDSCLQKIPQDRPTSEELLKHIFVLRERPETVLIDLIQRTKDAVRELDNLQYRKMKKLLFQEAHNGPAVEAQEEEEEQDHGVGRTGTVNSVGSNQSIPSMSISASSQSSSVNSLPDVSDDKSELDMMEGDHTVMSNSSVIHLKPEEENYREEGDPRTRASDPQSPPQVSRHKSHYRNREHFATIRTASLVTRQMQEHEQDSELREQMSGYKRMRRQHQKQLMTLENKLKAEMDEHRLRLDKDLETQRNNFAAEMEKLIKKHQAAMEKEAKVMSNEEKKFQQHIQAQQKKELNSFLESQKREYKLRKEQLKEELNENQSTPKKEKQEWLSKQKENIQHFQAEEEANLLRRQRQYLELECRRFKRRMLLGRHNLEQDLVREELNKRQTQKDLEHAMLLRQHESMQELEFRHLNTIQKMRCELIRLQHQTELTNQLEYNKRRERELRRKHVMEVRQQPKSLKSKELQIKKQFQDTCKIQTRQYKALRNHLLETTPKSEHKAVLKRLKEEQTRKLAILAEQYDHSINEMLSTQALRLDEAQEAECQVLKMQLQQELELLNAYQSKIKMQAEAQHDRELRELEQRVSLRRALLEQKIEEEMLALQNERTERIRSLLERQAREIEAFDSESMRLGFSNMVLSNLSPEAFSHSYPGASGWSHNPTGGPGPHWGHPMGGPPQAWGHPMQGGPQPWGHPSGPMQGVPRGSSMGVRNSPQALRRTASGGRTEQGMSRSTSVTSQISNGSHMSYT

TAOK3 = target: T5, TAOK3 (Homo sapiens, UniProt Q9H2K8); set-up: method as in HMS LINCS database; settings: 10 μM, ref HMS LINCS database; cited from earlier work
T5 construct: purchased Reaction Biology Corp
T5 sequence (Q9H2K8 whole entry): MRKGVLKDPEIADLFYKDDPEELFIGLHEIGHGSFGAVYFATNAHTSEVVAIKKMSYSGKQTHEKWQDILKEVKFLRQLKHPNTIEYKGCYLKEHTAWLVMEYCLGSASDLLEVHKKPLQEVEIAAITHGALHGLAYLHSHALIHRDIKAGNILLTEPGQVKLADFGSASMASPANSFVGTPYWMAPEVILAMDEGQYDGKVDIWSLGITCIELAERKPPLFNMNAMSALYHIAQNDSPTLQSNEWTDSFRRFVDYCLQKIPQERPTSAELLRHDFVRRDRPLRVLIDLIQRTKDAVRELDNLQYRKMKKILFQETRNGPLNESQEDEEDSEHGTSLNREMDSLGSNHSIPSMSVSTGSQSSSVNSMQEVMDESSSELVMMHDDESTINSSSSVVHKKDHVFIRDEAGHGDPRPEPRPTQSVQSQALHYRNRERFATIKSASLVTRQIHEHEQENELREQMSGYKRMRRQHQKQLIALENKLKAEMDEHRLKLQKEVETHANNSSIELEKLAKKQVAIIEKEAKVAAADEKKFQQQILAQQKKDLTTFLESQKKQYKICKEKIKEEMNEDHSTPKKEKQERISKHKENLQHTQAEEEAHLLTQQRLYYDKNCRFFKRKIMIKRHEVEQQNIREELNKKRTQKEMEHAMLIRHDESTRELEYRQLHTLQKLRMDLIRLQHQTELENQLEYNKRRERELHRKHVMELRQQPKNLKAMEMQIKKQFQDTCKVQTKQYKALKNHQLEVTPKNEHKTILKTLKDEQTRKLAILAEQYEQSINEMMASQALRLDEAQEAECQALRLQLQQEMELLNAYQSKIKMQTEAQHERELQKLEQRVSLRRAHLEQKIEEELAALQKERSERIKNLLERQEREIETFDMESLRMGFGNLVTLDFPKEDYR

CLK2 = target: T6, CLK2 (Homo sapiens, UniProt P49760); set-up: method as in HMS LINCS database; settings: 10 μM, ref HMS LINCS database; cited from earlier work
T6 construct: purchased Reaction Biology Corp

HIPK3 = target: T7, HIPK3 (Homo sapiens, UniProt Q9H422); set-up: method as in HMS LINCS database; settings: 10 μM, ref HMS LINCS database; cited from earlier work
T7 construct: purchased Reaction Biology Corp

TAOK2 = target: T8, TAOK2 (Homo sapiens, UniProt Q9UL54); set-up: method as in HMS LINCS database; settings: 10 μM, ref HMS LINCS database; cited from earlier work
T8 construct: purchased Reaction Biology Corp

CLK4 = target: T9, CLK4 (Homo sapiens, UniProt Q9HAZ1); set-up: method as in HMS LINCS database; settings: 10 μM, ref HMS LINCS database; cited from earlier work
T9 construct: purchased Reaction Biology Corp
T9 sequence (Q9HAZ1 whole entry): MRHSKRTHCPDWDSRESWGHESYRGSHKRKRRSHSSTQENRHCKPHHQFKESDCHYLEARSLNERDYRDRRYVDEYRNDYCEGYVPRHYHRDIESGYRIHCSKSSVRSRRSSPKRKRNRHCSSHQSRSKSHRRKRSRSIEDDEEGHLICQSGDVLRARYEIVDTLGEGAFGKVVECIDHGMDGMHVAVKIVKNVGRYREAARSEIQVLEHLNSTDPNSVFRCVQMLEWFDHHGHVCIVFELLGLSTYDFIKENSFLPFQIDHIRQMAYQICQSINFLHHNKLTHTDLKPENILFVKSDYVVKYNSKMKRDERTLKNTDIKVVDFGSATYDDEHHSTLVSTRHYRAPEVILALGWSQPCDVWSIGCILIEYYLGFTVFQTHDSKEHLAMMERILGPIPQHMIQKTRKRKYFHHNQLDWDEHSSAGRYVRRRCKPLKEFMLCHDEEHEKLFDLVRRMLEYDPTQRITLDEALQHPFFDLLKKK

DYRK1B = target: T10, DYRK1B (Homo sapiens, UniProt Q9Y463); set-up: method as in HMS LINCS database; settings: 10 μM, ref HMS LINCS database; cited from earlier work
T10 construct: purchased Reaction Biology Corp
T10 sequence (Q9Y463 whole entry): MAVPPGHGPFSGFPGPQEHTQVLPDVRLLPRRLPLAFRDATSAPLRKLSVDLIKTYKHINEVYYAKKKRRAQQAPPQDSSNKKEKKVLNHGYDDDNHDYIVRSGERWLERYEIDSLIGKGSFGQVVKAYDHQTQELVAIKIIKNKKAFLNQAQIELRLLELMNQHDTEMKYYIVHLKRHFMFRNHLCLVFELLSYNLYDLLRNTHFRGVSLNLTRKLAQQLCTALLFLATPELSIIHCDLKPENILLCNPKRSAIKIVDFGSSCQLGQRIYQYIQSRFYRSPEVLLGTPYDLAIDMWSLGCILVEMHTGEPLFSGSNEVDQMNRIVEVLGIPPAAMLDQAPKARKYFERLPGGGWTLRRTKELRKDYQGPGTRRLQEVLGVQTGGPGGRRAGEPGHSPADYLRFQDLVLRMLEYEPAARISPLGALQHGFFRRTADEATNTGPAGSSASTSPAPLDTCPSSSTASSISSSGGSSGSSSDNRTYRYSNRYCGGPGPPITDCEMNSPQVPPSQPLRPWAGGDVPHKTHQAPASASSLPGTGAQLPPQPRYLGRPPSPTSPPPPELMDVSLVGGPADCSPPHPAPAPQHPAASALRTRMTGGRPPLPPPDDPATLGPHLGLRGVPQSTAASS

PAK3 = target: T11, PAK3 (Homo sapiens, UniProt O75914); set-up: method as in HMS LINCS database; settings: 10 μM, ref HMS LINCS database; cited from earlier work
T11 construct: purchased Reaction Biology Corp
T11 sequence (O75914 whole entry): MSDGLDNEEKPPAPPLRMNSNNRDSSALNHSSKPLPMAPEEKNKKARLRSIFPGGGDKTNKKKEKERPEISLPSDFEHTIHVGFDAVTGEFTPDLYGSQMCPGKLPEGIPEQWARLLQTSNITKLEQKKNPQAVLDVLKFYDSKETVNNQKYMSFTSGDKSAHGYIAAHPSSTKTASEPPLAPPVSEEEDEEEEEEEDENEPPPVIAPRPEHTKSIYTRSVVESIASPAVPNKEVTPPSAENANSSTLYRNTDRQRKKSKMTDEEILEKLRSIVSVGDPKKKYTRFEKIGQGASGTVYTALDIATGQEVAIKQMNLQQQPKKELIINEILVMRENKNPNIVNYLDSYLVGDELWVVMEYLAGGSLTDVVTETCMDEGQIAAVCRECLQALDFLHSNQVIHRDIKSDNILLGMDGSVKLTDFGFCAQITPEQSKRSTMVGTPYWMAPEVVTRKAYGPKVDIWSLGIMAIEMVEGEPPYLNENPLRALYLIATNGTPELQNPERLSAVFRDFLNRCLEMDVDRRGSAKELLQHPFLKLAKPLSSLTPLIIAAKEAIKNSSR

STK36 = test system: STK36; set-up: method as in HMS LINCS database; settings: 10 μM, ref HMS LINCS database; cited from earlier work
CDKL1 = test system: CDKL1; set-up: method as in HMS LINCS database; settings: 10 μM, ref HMS LINCS database; cited from earlier work
YSK1 = target: T12, YSK1 (Homo sapiens, UniProt O00506); set-up: method as in HMS LINCS database; settings: 10 μM, ref HMS LINCS database; cited from earlier work
T12 construct: purchased Reaction Biology Corp
T12 sequence (O00506 whole entry): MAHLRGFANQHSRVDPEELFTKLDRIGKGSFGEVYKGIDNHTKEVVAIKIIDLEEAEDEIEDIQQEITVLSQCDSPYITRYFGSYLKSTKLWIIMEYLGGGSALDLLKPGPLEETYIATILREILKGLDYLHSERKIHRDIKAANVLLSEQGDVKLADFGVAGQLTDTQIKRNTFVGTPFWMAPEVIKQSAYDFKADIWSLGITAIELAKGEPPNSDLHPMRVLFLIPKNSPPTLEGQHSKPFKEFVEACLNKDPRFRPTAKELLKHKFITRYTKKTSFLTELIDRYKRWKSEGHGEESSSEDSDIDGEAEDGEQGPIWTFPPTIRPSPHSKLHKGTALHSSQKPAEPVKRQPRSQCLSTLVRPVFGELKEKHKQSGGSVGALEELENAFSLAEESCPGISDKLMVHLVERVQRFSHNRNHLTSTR

CCn1cnc2c(NCc3ccc(-c4ccccn4)nc3)nc(-c3ccc(N)nc3)nc21 [Compound 30d, N-([2,2′-Bipyridin]-5-ylmethyl)-2-(6-aminopyridin-3-yl)-9-ethyl-9H-purin-6-amine]
combination effect with trastuzumab in growth inhibition (HCC1954 cells): modest level of synergism
combination effect with trastuzumab in growth inhibition (SK-Br3 cells): modest level of synergism

CCc1cnn2c(NCc3ccc[n+]([O-])c3)cc(N3CCCC[C@H]3CCO)nc12 [Dinaciclib]
% control (CDK4-cyclinD1): 0.1%
% control (CDK3): 0.3%
% control (PCTK1): 0.3%
% control (CDK7): 0.4%
% control (PFTAIRE2): 0.4%
% control (ICK): 0.9%
% control (TLK1): 0.9%
% control (ERK8): 1.0%
% control (PFPK5(P.falciparum)): 1.2%
% control (CDKL5): 1.6%
% control (GSK3a): 3.0%
% control (TAOK1): 3.1%
% control (TAOK3): 3.8%
% control (CLK2): 4.2%
% control (HIPK3): 4.4%
% control (TAOK2): 4.8%
% control (CLK4): 5.1%
% control (DYRK1B): 6.0%
% control (PAK3): 7.8%
% control (STK36): 7.8%
% control (CDKL1): 9.1%
% control (YSK1): 9.2%
